Measured values as given in patent US20210393856A1, “COMPOSITIONS AND METHODS FOR REDUCING CALCIFICATION OF HEART VALVES” (Arizona Board of Regents on Behalf of the University of …, priority 2018, published 2021).
Values belong to the molecule of their own block, whether it stands above or below them.

Key:
[1] = tested on: calcifying AVM cell cultures; experiment: Runx2 isoform and osteogenic marker expression in calcifying AVM cell cultures with various treatments; format: cell-based, mouse
Method: Embryonic precursors of valvular interstitial cells (VICs) calcify when grown as tissue culture aggregates similar to micromass cultures of limb cells developed by (Ahrens et al., 1977). A mouse fetal VIC cell line (AVM cells) obtained from the Immortamouse (gift of Kai Jiao, UAB) were used to investigate calcification. These cells express a temperature sensitive Large T antigen and are immortal at 33° C. and revert to a valvular phenotype at 37° C.
The cell and organ culture models described above are used to study valve calcification by staining and expression of osteogenic markers. […] Both Runx2 isoform levels are elevated concomitant with calcification in vitro and in situ. To explore the relationship between identified regulators and markers of the osteogenic program in calcifying valve tissues, Runx2 isoform and osteogenic marker expression was measured in calcifying AVM cell cultures with various treatments. AVM cultures were treated with siRNA against Runx2-II, noggin (inhibitor of BMP), an anti-TGFβ antibody (against all three isoforms), and DAPT (inhibitor of Notch signaling). […] These indicate that Runx2 is a fairly central player in this calcification process but that Runx2 expression, in these cultures, is independent of TGFβ and BMP signaling.
For cell culture, human and porcine VICs and human valvular endothelial cells (VECs) are used. VICs are expanded from initial culture and stored as aliquots in liquid nitrogen. All experiments are performed with low passage number cells and each cell source is profiled by the UA Genetics Core to confirm and maintain the identity of each cell line. A mouse AV valve mesenchymal cell line (AVM) was obtained from Kai Jao (U. of Ala., Birmingham). These cells were from mice containing a temperature sensitive large T transgene (Immorta-Mouse) and the cells were grown at 33° C. to obtain an immortal cell line (Peng et al., 2017). The cells revert to a cushion/valve phenotype at 37° C. The micromass cultures of Solursh and colleagues (Ahrens et al.,1977) were recapitulated to observe calcification in vitro in this cell system. Calcium deposits became visible by von Kossa staining by 5 days in culture and prominent by day 12 (FIG. 3). […] Marker expression is consistent with a valve calcification phenotype and supports a central role for Runx2 in calcification (FIG. 2). For organ culture of intact valves, fresh aortic pig valves are obtained from the meat lab in the College of Agriculture and incubated on the surface of collagen gels. Experiments compare responses in intact aortic valves and VIC and VEC cell lines. […] Though 19 purinergic receptors are identified in Table 1, those P2Y and P2X receptors that are not found in valve tissues are excluded from further analysis.

[2] = tested on: calcifying AVM cells; experiment: Runx2-II and Mgp in calcifying AVM cells in the presence of AMP; format: cell-based, mouse; conditions: FIG. 9
[3] = tested on: AVM cultures; experiment: Effects of adenosine and adenosine receptor agonists on Runx2 expression in AVM cultures (qPCR); format: cell-based, mouse; conditions: for expression of Runx2 compared to control cultures: up to 5 days, FIG. 12
Excerpt: Expression was normalized to GAPDH. Average of 3 independent repeats with SEM.
Runx2 expression increases in calcifying AVM cells with time in culture. Cells treated with either 2′-MeCCPA (A1 agonist) or PSB0777 (A2a agonist) up to 5 days.
Adenosine levels were confirmed using HPLC.

[4] = tested on: Alkaline phosphatase (ALP); conditions: aortas incubated in osteogenic medium (Zukowska et al., 2017); cited from earlier work
[5] = tested on: AVM cell cultures; experiment: qPCR measurement of osteogenic marker expression by AVM cell cultures (ATP, PO4, CD73); format: cell-based, mouse
Excerpt: (§1) Over 5 days, exposure to this concentration of ATP is apoptotic as measured by the ratio of Bax/Bcl2, and this may contribute to calcification.

[6] = tested on: valve cell cultures; experiment: Apoptosis measured by the ratio of Bax/Bcl2 in valve cell cultures; format: cell-based; conditions: 100 μM, over 5 days
Excerpt: as §1

[7] = tested on: mouse VIC; experiment: Osteogenic markers after mouse VIC incubation with adenosine receptor agonists; format: cell-based; conditions: mouse VIC / AVM cell cultures, FIG. 8
[8] = tested on: micromass cultures; experiment: Concentration of adenosine in culture media of micromass cultures after adding recombinant CD73; format: cell-based; parameters: concentration of adenosine in the culture media: unit not given here; conditions: 1 μg/ml, approximately 100,000 cells in a dish

Molecule: C[C@H](NC(=O)Cc1cc(F)cc(F)c1)C(=O)N[C@H](C(=O)OC(C)(C)C)c1ccccc1 [DAPT, reference compound]
- Runx2 expression [1]: reduced Runx2 expression
- expression of other markers (Twist1, Cbfβ, MGP) [1]: upregulated the other markers

Molecule: Nc1ncnc2c1ncn2[C@@H]1O[C@H](COP(=O)(O)O)[C@@H](O)[C@H]1O [AMP]
- Runx2-II and Mgp [2]: reduced

Molecule: Nc1ncnc2c1ncn2[C@@H]1O[C@H](CO)[C@@H](O)[C@H]1O [adenosine]
- Runx2 expression ([3]; AVM cultures at 0.35 μM, 3.5 μM and 50 μM adenosine, normalized to GAPDH, FIG. 11): inhibited at an exposure consistent with the high affinity A1 receptor
- Alkaline phosphatase (ALP) activity [4]: reduced

Molecule: Nc1ncnc2c1ncn2[C@@H]1O[C@H](COP(=O)(O)OP(=O)(O)OP(=O)(O)O)[C@@H](O)[C@H]1O [ATP]
- osteocalcin and osteopontin ([5]; 100 μM added every 12 hr, at 5 days): large increase
- Alkaline phosphatase (ALP) activity [4]: increased
- apoptosis as ratio of Bax/Bcl2 [6]: apoptotic

- expression of Runx2 compared to control cultures ([3]; 1 μM): reduced
- induction of osteogenic markers (Runx2 and MGP) [7]: significant induction
Molecule: Nc1nc(SCCc2ccc(S(=O)(=O)O)cc2)nc2c1ncn2[C@@H]1O[C@H](CO)[C@@H](O)[C@H]1O [PSB0777]

- expression of Runx2 compared to control cultures ([3]; 0.1 μM): reduced
- induction of osteogenic markers (Runx2 and MGP) [7]: significant induction
Molecule: C[C@@]1(O)[C@H](O)[C@@H](CO)O[C@H]1n1cnc2c(NC3CCCC3)nc(Cl)nc21 [2′-MeCCPA]

Molecule: O=P(O)(O)O [PO4]
- osteogenic markers ([5]; added to culture media, at 12 days, FIG. 13): increases

B1: noggin: inhibitor of BMP (protein, UniProt Q13253 28-232, looked up)
Noggin: QHYLHIRPAPSDNLPLVDLIEHPDPIFDPKEKDLNETLLRSLLGGHYDPGFMATSPPEDRPGGGGGAAGGAEDLAELDQLLRQRPSGAMPSEIKGLEFSEGLAQGKKQRLSKKLRRKLQMWLWSQTFCPVLYAWNDLGSRFWPRYVKVGSCFSKRSCSVPEGMVCKPSKSVHLTVLRWRCQRRGGQRCGWIPIQYPIISECKCSC
- Runx2 expression [1]: little effect
- expression of other markers (Twist1, Cbfβ, MGP) [1]: lesser effects

B2: recombinant CD73: ecto-5′-nucleotidase, converts AMP to adenosine (protein, UniProt P21589 27-549, looked up)
5'-nucleotidase: WELTILHTNDVHSRLEQTSEDSSKCVNASRCMGGVARLFTKVQQIRRAEPNVLLLDAGDQYQGTIWFTVYKGAEVAHFMNALRYDAMALGNHEFDNGVEGLIEPLLKEAKFPILSANIKAKGPLASQISGLYLPYKVLPVGDEVVGIVGYTSKETPFLSNPGTNLVFEDEITALQPEVDKLKTLNVNKIIALGHSGFEMDKLIAQKVRGVDVVVGGHSNTFLYTGNPPSKEVPAGKYPFIVTSDDGRKVPVVQAYAFGKYLGYLKIEFDERGNVISSHGNPILLNSSIPEDPSIKADINKWRIKLDNYSTQELGKTIVYLDGSSQSCRFRECNMGNLICDAMINNNLRHTDEMFWNHVSMCILNGGGIRSPIDERNNGTITWENLAAVLPFGGTFDLVQLKGSTLKKAFEHSVHRYGQSTGEFLQVGGIHVVYDLSRKPGDRVVKLDVLCTKCRVPSYDPLKMDEVYKVILPNFLANGGDGFQMIKDELLRHDSGDQDINVVSTYISKMKVIYPAVEGRIKFS
- effects of exogenous ATP (osteogenic markers, apoptosis) ([5]; exogenous enzyme added with 100 μM ATP): reduced
- increase of adenosine concentration in the culture media [8]: 5 fold
- concentration of adenosine in the culture media ([8]; from 1.7 without enzyme): 8.7
